Experimental data taken from patent publication US11129867B2, “Method of treating cancer cells” (priority 2017, dated 2021).
Where a SMILES comes first, the peptide text is derived from it. The star is where a group is joined. X1 = CN(C)c1ccc2c(-c3ccc(C(=O)*)cc3C(=O)[O-])c3ccc(=[N+](C)C)cc-3oc2c1

Key:
MDA-MB-231 = experiment: WST-8 cell viability assay, MDA-MB-231; format: cell-based; settings: MDA-MB-231 (breast cancer), different concentrations, 48 hours, FIG. 3
Experimental: (§1) Human oral squamous cell carcinoma (OSCC) cell lines, Ca922, OSC20, OECM-1, OC3, CGHNC9, HSC3, plus A549, MDA-MB-231, MCF7, Huh7, HeLa-Kyoto, Detroit 562, H520, H2170, and 293T cells were used in this study. Ca922, CGHNC9, MDA-MB-231, MCF7, Huh7, HeLa-Kyoto, Detroit 562, and 293T cells were all cultured in high-glucose Dulbecco's Modified Eagle Medium (DMEM). OSC20 and HSC3 cells were cultured in Dulbecco's Modified of Eagle's Medium/Ham's F-12 50/50 Mix (1:1). OECM-1, A549, H520, and H2170 cells were grown in RPMI-1640 medium. All culture media were supplemented with 10% fetal bovine serum (FBS) and 1% penicillin-streptomycin. OC3 cells were cultured in 1:1 DMEM/KSFM (keratinocyte serum-free medium) with supplied supplement of Bovine pituitary extract (BPE) and epidermal growth factor (EGF) followed by instruction. All the cells in this study were maintained at 37° C. in humidified atmosphere containing 5% CO2.
(§2) WST-8 [2-(2-methoxy-4-nitrophenyl)-3-(4-nitrophenyl)-5-(2,4-disulfophenyl)-2H-tetrazolium, monosodium salt] cell viability assay
(§3) Cells were seeded into 96 well plate and incubated at 37° C. overnight. […] The amount of formazan produced is proportional to the number of live cells and is expressed as cellular viability. […] Cell viability was measured at the absorbance of 450/655 nm wavelength by ELISA reader.

MCF7 = experiment: WST-8 cell viability assay, MCF7; format: cell-based; settings: MCF7 (breast cancer), different concentrations, 48 hours, FIG. 3
Experimental: as §1, §2, §3

Detroit 562 = experiment: WST-8 cell viability assay, Detroit 562; format: cell-based; settings: Detroit 562 (pharynx cancer), different concentrations, 48 hours, FIG. 5
Experimental: as §1, §2
(§4) Cells were seeded into 96 well plate and incubated at 37° C. overnight. Endpoint measures of TMR-GBP or drugs were performed by water soluble tetrazolium salt (WST-8)-based colorimetric assay in triplicate which measures the metabolic conversion of WST-8 into formazan by mitochondrial dehydrogenases present in viable cells. The amount of formazan produced is proportional to the number of live cells and is expressed as cellular viability. When time was up, media were removed and supplemented with WST-8 cell viability reagent-contained cell culture medium (1:10) and incubated at 37° C. for 2 hours. Besides, three wells with WST-8-dissolved medium only (without cells) were reserved as a background control. Cell viability was measured at the absorbance of 450/655 nm wavelength by ELISA reader.

H2170 = experiment: WST-8 cell viability assay, H2170; format: cell-based; settings: H2170 (lung cancer), different concentrations, 48 hours, FIG. 5
Experimental: as §1, §2, §4

H520 = experiment: WST-8 cell viability assay, H520; format: cell-based; settings: H520 (lung cancer), different concentrations, 48 hours, FIG. 5
Experimental: as §1, §2, §4

[1] = system: mitochondria of Ca922 cells; experiment: Immunofluorescence staining of TOM20 and cytochrome-c; format: cell-based, human; settings: Ca922, different dose, 8 or 24 hours, FIG. 7
Experimental: Ca922 cells were treated with different doses of TMR-GBP for 8 or 24 hours and then fixed with 4% formaldehyde. Representative images showing the staining of mitochondria marker TOM20 and cytochrome-c. Scale bar indicates 10 μm.
Immunofluorescence Staining
Cells grown on coverslips were washed with 1×PBS and fixed by PTEMF buffer (20 mM PIPES pH 6.8, 0.2% Triton X-100, 10 mM EGTA, 1 mM MgCl2, and 4% formaldehyde) or 4% paraformaldehyde for 10 minutes at room temperature. Then, fixation buffer was replaced with 1×PBST and the cells were washed with 1×PBST for another 10 minutes at room temperature. Coverslips were washed with 1×PBST twice gently and incubated with primary antibodies at room temperature for 1 hour. Next, washed with PBST for three times (2, 2, 5 minutes). Afterwards, coverslips were cultured in Alex Fluor-conjugated secondary antibodies and DAPI at room temperature for 30 minutes, washed three times (2, 2, 5 minutes), rinsed with ddH2O and mounted with mounting medium. Antibodies concentration used in this analysis is 1:1000 dilution. Images were acquired with specific fluorescence wavelength by Leica DMI6000 inverted microscope equipped with HCX PL FL 100λ/NA1.40 objective and EMCCD camera. All images were analyzed by MetaMorph software.

Caspase-7 = experiment: Western blotting of Caspase-7; format: cell-based, human; settings: Ca922, 25 μM, FIG. 11B
Experimental: (§5) Protein lysate of Ca922 cells treated with TMR-GBP 25 μM were blotted with antibodies against Caspase-3, Caspase-7, Caspase-9 and Poly (ADP-ribose) polymerase (PARP). Representative blots are shown.
(§6) Western Blotting Analysis
(§7) Cells were harvested by trypsion or scratch and lysed in RIPA buffer (50 mM Tris-HCl, pH 7.4, 150 mM NaCl, 0.1% SDS, 0.5% Sodium deoxycholate, 1% NP-40) supplemented with 1× protease inhibitor cocktail. Sample was incubated on ice for 30 minutes and scraped every 10 minutes. Centrifuge at 13,000 rpm at 4° C. for 15 minutes, then collect supernatant for analysis. Protein concentration was determined by Bradford assay. First, 5× Bradford assay dye reagent was diluted into […], and mixture with RIPA (as standard) or samples. Concentration was obtained by spectrophotometer measurement. Equal volume of 2× laemmli buffer containing β-ME was added into protein lysate for goal concentration. Protein samples were boiled at 100° C. for 15 minutes and resolved by 10% SDS-PAGE gel or 4%-15% gradient gel. Then, transfer to PVDF membrane by 100V or 110V voltage for 1 hour. […] Washing the membrane three times with 1×PBST for every 5 minutes, protein band was detected by modified ECL (ddH2O, […] Tris pH8.0, 200 μM p-coumaric acid, 1.25 mM luminal, 0.001% H2O2) with ImageQuant LAS 4000 digital imaging system.

Caspase-9 = experiment: Western blotting of Caspase-9; format: cell-based, human; settings: Ca922, 25 μM, FIG. 11B
Experimental: as §5, §6, §7

`CN(C)c1ccc2c(-c3ccc(C(=O)N[C@@H](CC(N)=O)C(=O)N[C@@H](Cc4ccc(O)cc4)C(=O)N[C@@H](CCCNC(=N)N)C(=O)N[C@@H](Cc4c[nH]c5ccccc45)C(=O)N[C@@H](CCCNC(=N)N)C(=O)N[C@@H](CS)C(=O)N[C@@H](CCCCN)C(=O)N[C@@H](CC(N)=O)C(=O)N[C@@H](CCC(N)=O)C(=O)N[C@@H](CC(N)=O)C(=O)O)cc3C(=O)[O-])c3ccc(=[N+](C)C)cc-3oc2c1` [TMR-GBP] (X1-NYRWRCKNQN-OH; N-terminus and C-terminus assumed) was tested, and the cell viability (MDA-MB-231) was “not markedly affected”, the cell viability (MCF7) was “not markedly affected” and the “cytotoxicity (cell viability)” value (Detroit 562) was “could induce cytotoxicity”. The “cytotoxicity (cell viability)” value (H2170) was “could induce cytotoxicity”, the “cytotoxicity (cell viability)” value (H520) was “could induce cytotoxicity” and the cytochrome-c release [1] was “Cytochrome-c release upon TMR-GBP treatment was also detected”. For the same compound, the “morphology of mitochondria (TOM20)” value [1] was “became fragmented when the concentration of TMR-GBP was increased or the treatment time was extended”, the “activation of caspase-7” value (Caspase-7) was “did not activate” and the “activation of caspase-9” value (Caspase-9) was “did not activate”.
